≈ marks a conversion by molar mass, not a printed value.
Legend:
Type in all cases: functional
[1] = test system: Streptococcus; test: Antimicrobial activity against viridans group Streptococcus assessed as percent resistant isolates by broth microdilution method
[2] = test system: Staphylococcus aureus; test: Antimicrobial activity against Oxacillin-resistant Staphylococcus aureus by broth microdilution method
[3] = test system: Staphylococcus aureus; test: Antimicrobial activity against Oxacillin-susceptible Staphylococcus aureus assessed as percent susceptible isolate by broth microdilution method
[4] = test system: Streptococcus; test: Antimicrobial activity against Beta-hemolytic Streptococcus by broth microdilution method
[5] = test system: Staphylococcus aureus; test: Antimicrobial activity against Oxacillin-resistant Staphylococcus aureus assessed as percent susceptible isolate by broth microdilution method
[6] = test system: Streptococcus; test: Antimicrobial activity against Beta-hemolytic Streptococcus assessed as percent susceptible isolate by broth microdilution method
[7] = test system: Staphylococcus aureus; test: Antimicrobial activity against Oxacillin-susceptible Staphylococcus aureus by broth microdilution method
[8] = test system: Staphylococcus; test: Antimicrobial activity against Oxacillin-susceptible coagulase-negative Staphylococcus assessed as percent resistant isolate by broth microdilution method
[9] = test system: Staphylococcus aureus; test: Antimicrobial activity against Oxacillin-susceptible Staphylococcus aureus assessed as percent resistant isolates by broth microdilution method
[10] = test system: Staphylococcus; test: Antimicrobial activity against Oxacillin-susceptible coagulase-negative Staphylococcus assessed as percent susceptible isolate by broth microdilution method
[11] = test system: Streptococcus; test: Antimicrobial activity against viridans group Streptococcus assessed as percent susceptible isolate by broth microdilution method
[12] = test system: Staphylococcus; test: Antimicrobial activity against Oxacillin-resistant coagulase-negative Staphylococcus by broth microdilution method
[13] = test system: Staphylococcus aureus; test: Antimicrobial activity against Oxacillin-resistant Staphylococcus aureus assessed as percent resistant isolate by broth microdilution method
[14] = test system: Staphylococcus; test: Antimicrobial activity against Oxacillin-resistant coagulase-negative Staphylococcus assessed as percent resistant isolate by broth microdilution method
[15] = test system: Streptococcus; test: Antimicrobial activity against viridans group Streptococcus by broth microdilution method
[16] = test system: Staphylococcus; test: Antimicrobial activity against Oxacillin-resistant coagulase-negative Staphylococcus assessed as percent susceptible isolate by broth microdilution method
[17] = test system: Staphylococcus; test: Antimicrobial activity against Oxacillin-susceptible coagulase-negative Staphylococcus by broth microdilution method
[18] = test system: Streptococcus; test: Antimicrobial activity against Beta-hemolytic Streptococcus assessed as percent resistant isolates by broth microdilution method
[19] = test system: Enterococcus faecium; test: Antimicrobial activity against Vancomycin-susceptible Enterococcus faecium assessed as percent susceptible isolate by broth microdilution method
[20] = test system: Enterococcus faecalis; test: Antimicrobial activity against Vancomycin-nonsusceptible Enterococcus faecalis assessed as percent resistant isolates by broth microdilution method
[21] = test system: Enterococcus faecium; test: Antimicrobial activity against Vancomycin-susceptible Enterococcus faecium by broth microdilution method
[22] = test system: Enterococcus faecalis; test: Antimicrobial activity against Vancomycin-nonsusceptible Enterococcus faecalis assessed as percent susceptible isolate by broth microdilution method
[23] = test system: Enterococcus faecalis; test: Antimicrobial activity against Vancomycin-susceptible Enterococcus faecalis assessed as percent susceptible isolate by broth microdilution method
[24] = test system: Enterococcus faecium; test: Antimicrobial activity against Vancomycin-nonsusceptible Enterococcus faecium assessed as percent susceptible isolate by broth microdilution method
[25] = test system: Enterococcus faecalis; test: Antimicrobial activity against Vancomycin-susceptible Enterococcus faecalis assessed as percent resistant isolates by broth microdilution method
[26] = test system: Enterococcus faecalis; test: Antimicrobial activity against Vancomycin-nonsusceptible Enterococcus faecalis by broth microdilution method
[27] = test system: Enterococcus faecium; test: Antimicrobial activity against Vancomycin-susceptible Enterococcus faecium assessed as percent resistant isolates by broth microdilution method
[28] = test system: Enterococcus faecalis; test: Antimicrobial activity against Vancomycin-susceptible Enterococcus faecalis by broth microdilution method
[29] = test system: Enterococcus faecium; test: Antimicrobial activity against Vancomycin-nonsusceptible Enterococcus faecium by broth microdilution method
[30] = test system: Enterococcus faecium; test: Antimicrobial activity against Vancomycin-nonsusceptible Enterococcus faecium assessed as percent resistant isolates by broth microdilution method

| Compound | Activity [1] [%] | MIC50 [2] [µg/mL] | MIC90 [2] [µg/mL] | Activity [3] [%] | MIC [4] [µg/mL] | MIC50 [4] [µg/mL] | MIC90 [4] [µg/mL] | Activity [6] [%] | MIC50 [7] [µg/mL] | MIC90 [7] [µg/mL] | Activity [10] [%] | Activity [11] [%] | MIC90 [12] [µg/mL] | Activity [13] [%] | MIC50 [15] [µg/mL] | MIC90 [15] [µg/mL] | Activity [16] [%] | MIC50 [17] [µg/mL] | MIC90 [17] [µg/mL] | Activity [18] [%] | further results |
| --- | --- | --- | --- | --- | --- | --- | --- | --- | --- | --- | --- | --- | --- | --- | --- | --- | --- | --- | --- | --- | --- |
| CCC[C@@H]1C[C@@H](C(=O)N[C@@H]([C@H]2O[C@H](SC)[C@H](O)[C@@H](O)[C@H]2O)[C@H](C)Cl)N(C)C1 [CLINDAMYCIN] | 9.5 | > 2 | > 2 | 95.8 | 0.25 (≈ 0.588 µM) | 0.25 (≈ 0.588 µM) | 0.25 (≈ 0.588 µM) | 91.4 | ≤ 0.25 | ≤ 0.25 | 93.5 | 89.8 | > 2 | 52.1 | 0.25 (≈ 0.588 µM) | 0.5 (≈ 1.18 µM) | 57 | ≤ 0.25 | ≤ 0.25 | 19.9 | Activity [5]: 47.8%; MIC [7]: ≤ 0.25 µg/mL; Activity [8]: 5.7%; Activity [9]: 4%; Activity [14]: 41.7%; MIC [15]: 0.25 µg/mL (≈ 0.588 µM); MIC [17]: ≤ 0.25 µg/mL |
| CC(=O)NC[C@H]1CN(c2ccc(N3CCOCC3)c(F)c2)C(=O)O1 [LINEZOLID] |  | 1 (≈ 2.96 µM) | 2 (≈ 5.93 µM) | 100 |  | 1 (≈ 2.96 µM) | 1 (≈ 2.96 µM) | 100 | 2 (≈ 5.93 µM) | 2 (≈ 5.93 µM) | 99.9 | 99.9 | 1 (≈ 2.96 µM) | 0.04 | 1 (≈ 2.96 µM) | 1 (≈ 2.96 µM) | 99.5 | 1 (≈ 2.96 µM) | 1 (≈ 2.96 µM) | 1.3 | Activity [19]: 99.6%; Activity [20]: 1.4%; MIC50 [21]: 1 µg/mL (≈ 2.96 µM); MIC90 [21]: 2 µg/mL (≈ 5.93 µM); Activity [22]: 98.6%; Activity [23]: 99.8%; Activity [24]: 97.6%; Activity [25]: 0.1%; MIC50 [26]: 1 µg/mL (≈ 2.96 µM); MIC90 [26]: 2 µg/mL (≈ 5.93 µM); Activity [27]: 0.3%; MIC50 [12]: 1 µg/mL (≈ 2.96 µM); MIC50 [28]: 1 µg/mL (≈ 2.96 µM); MIC90 [28]: 2 µg/mL (≈ 5.93 µM); MIC50 [29]: 1 µg/mL (≈ 2.96 µM); MIC90 [29]: 2 µg/mL (≈ 5.93 µM); Activity [30]: 1.8% |
| C[C@H]1COc2c(N3CCN(C)CC3)c(F)cc3c(=O)c(C(=O)O)cn1c23.C[C@H]1COc2c(N3CCN(C)CC3)c(F)cc3c(=O)c(C(=O)O)cn1c23.O [LEVOFLOXACIN] | 3.6 | > 4 | > 4 | 92.8 | 0.5 | 0.5 | 1 | 98.6 | ≤ 0.5 | ≤ 0.5 | 87.5 | 95.7 | > 4 | 80.1 | 1 | 2 | 31.8 | ≤ 0.5 | 4 | 8.2 | Activity [5]: 18.3%; MIC [7]: ≤ 0.5 µg/mL; Activity [8]: 11.1%; Activity [9]: 6.7%; MIC50 [12]: 4 µg/mL; Activity [14]: 61.4%; MIC [17]: ≤ 0.5 µg/mL |

Reference: ChEMBL document CHEMBL1629667, “Activities of dalbavancin against a worldwide collection of 81,673 gram-positive bacterial isolates” (2009)
